One may read the Ki as a dissociation constant, usually derived from enzyme kinetics or from competition with a known ligand.

We go through six compounds from article PMC7185411 (Biochimica et Biophysica Acta. Proteins and Proteomics, 2015).

Series [1] addresses Chymotrypsin. The note with it: read-out: Ki(obs), cited from earlier work.
For series [2] the following is noted: cited from earlier work; for KH1: KH1 = KH1obs/[H2O], 25 °C.
Series [3] deals with Chymotrypsin. The series is described as follows: Binding of inhibitors to chymotrypsin. It counts as biochemical. The settings on record: for KiIH/KiICHO or KiIH/KiICOCHO: fold increase in binding due to aldehyde or glyoxal group; for KiIH/KiICOOH: pH 7.2, ratio of Ki(obs) of peptide-H to peptide-COOH.
The subject of series [4] is α-Chymotrypsin. The note with it: equilibrium constant for hemiketal formation; cited from earlier work.
[5] abbreviates: hydration of glyoxal keto group.

Where two headings read alike, the source gives them in different places. Marks after values point to notes of the source that are not given here. Residues, ends and D or L forms follow the SMILES beside them. *: point of attachment. Cbz = O=C(OCc1ccccc1)*

Take `C[C@H](NC(=O)OCc1ccccc1)C(=O)N[C@@H](C)C(=O)N[C@@H](Cc1ccccc1)C(=O)C=O` [ZAAF-CHO, Z-Ala-Ala-Phe-CHO]: the Ki in series [1] (25 °C) was 1.7 ± 0.4 µM. Besides, the KH1 in series [2] is reported as 0.25. Further, the “KH1(obs)” value in series [2] (hydration of aldehyde group) is reported as 13.9 ^e. Also, the “KiIH/KiICHO or KiIH/KiICOCHO” value in series [3] is reported as 100.
Regarding `CC(NC(=O)OCc1ccccc1)C(=O)NC(C)C(=O)NC(Cc1ccccc1)C(=O)C=O` (stereo not shown) [ZAAF-COCHO], in series [1] (pH 7.2, 25 °C), the Ki was 0.365 µM. In addition, the KH1 in series [2] was 0.0284. For the same compound, the “KH1(obs)” value in series [2] (setting [5]) is given as 1.58 ^d. In series [3], the “KiIH/KiICHO or KiIH/KiICOCHO” value is 455. For the same compound, in series [4], the KHK was 1170.
With `C[C@H](NC(=O)OCc1ccccc1)C(=O)N1CCC[C@H]1C(=O)N[C@@H](Cc1ccccc1)C(=O)C=O` [ZAPF-COCHO], the Ki in series [1] (pH 7.2, 25 °C) was 0.0335 µM. In addition, the KH1 in series [2] was 0.023. In addition, the “KH1(obs)” value in series [2] (setting [5]) is recorded as 1.28 ^c. Further, the “KiIH/KiICHO or KiIH/KiICOCHO” value in series [3] is 2310; in series [3] (listed as Z-APF-COCHO), 460–2300. Further, the KHK in series [4] is on record as 5270.
Consider `CC(NC(=O)OCc1ccccc1)C(=O)N1CCCC1C(=O)NC(C=O)Cc1ccccc1` (stereo not drawn) [ZAPF-H, Z-Ala-Pro-Phe-H] (Cbz-Ala-Pro-Phe-aldehyde; configuration not given here), for which the Ki in series [1] (pH 7.2, 25 °C) is 77.4 ± 6.4 µM.
Consider Cbz-Ala-Ala-Phe-OH [ZAAF-COOH], for which, in series [1] (pH 7.2, 25 °C), the Ki was 532 ± 50 µM. Moreover, in series [3], the “fold tighter binding on replacing the α-carboxylate group with a hydrogen atom” value was 3–4 fold and the KiIH/KiICOOH turned out to be 0.31.
Cbz-Ala-Pro-Phe-OH [ZAPF-COOH]: the Ki in series [1] (pH 7.2, 25 °C) was 241 ± 7 µM. In series [3], the “fold tighter binding on replacing the α-carboxylate group with a hydrogen atom” value is recorded as 3–4 fold and the KiIH/KiICOOH was determined as 0.32.
